The subject of assay [1] is homocitrulline levels. In words: Effect of simvastatin on plasma levels of homocitrulline (randomized placebo-controlled study). Format: in vivo, human. The conditions noted are these: 6 weeks of treatment. As to the method:
This study was intended to evaluate the effect of statin therapy on homocitrulline levels. Specimens came from archival materials from a randomized, double-blind, parallel-group, 4-arm, placebo-controlled, multi-center study conducted in 1997. Prior to randomization, subjects underwent a 4-week diet/placebo run-in period. Eligible patients were then randomized to 1 of 4 treatments (ratio 1:1:1:1): placebo, simvastatin 20, 40, or 80 mg, and received 6 weeks of treatment. One hundred and eighty eight out of 195 enrolled men and women completed the study. Subjects were required to have elevated TG (300 to 900 mg/dL), and many had comorbidities associated with the metabolic syndrome; however, though those with morbid obesity, uncontrolled hypertension, or severe hyperlipidemia were excluded. Archived serum and/or plasma that were drawn predose on Day 1 and on Day 42 were used in this analysis.

Assay [2] deals with T1, scavenger receptor SR-A1 (Mus musculus, UniProt P30204).
T1 construct: expressed in transfected cells; host or cells: CHO cells, stably transfected
T1 sequence (P30204 1-458): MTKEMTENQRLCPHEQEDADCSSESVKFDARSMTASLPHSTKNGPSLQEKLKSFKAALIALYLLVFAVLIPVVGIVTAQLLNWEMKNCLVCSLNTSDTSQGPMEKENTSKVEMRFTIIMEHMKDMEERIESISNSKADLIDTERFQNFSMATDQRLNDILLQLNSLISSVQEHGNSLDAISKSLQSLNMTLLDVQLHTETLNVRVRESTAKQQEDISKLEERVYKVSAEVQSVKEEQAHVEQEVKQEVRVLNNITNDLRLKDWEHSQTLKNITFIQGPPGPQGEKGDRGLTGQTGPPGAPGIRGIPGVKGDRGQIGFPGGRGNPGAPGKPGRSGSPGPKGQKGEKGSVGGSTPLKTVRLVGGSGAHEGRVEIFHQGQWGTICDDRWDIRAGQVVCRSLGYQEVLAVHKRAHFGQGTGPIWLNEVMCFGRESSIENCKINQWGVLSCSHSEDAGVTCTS
In words: Carbamylated LDL binding studies with SR-A1 transfected cells / SR-A1 inhibitor. Conditions: data not shown. Format: cell-based, murine.

In assay [3] the test system is aortic smooth muscle cells (both human and bovine). As to the kind of experiment: Aortic smooth muscle cell proliferation. Format: cell-based. Conditions: SR-A1 inhibitor present in culture media. From the text: 1,1′-dioctadecyl-3,3,3′,3′-tetramethylyindocarbocyanine perchlorate (DiI) was obtained from Molecular Probes (Eugene, Oreg.). Organic solvents were obtained from Fisher Scientific Co. (Pittsburgh, Pa.). Caspase-3/7 assay kit (Lot #220150) was purchased from Promega (Madison, Wis.) and cell proliferation ELISA, BrdU (colorimetric) kit (Lot #11647229001) was from Roche (Indianapolis, Ind.). All other reagents and materials were obtained from Sigma Chemical Co. (St. Louis, Mo.) unless otherwise indicated. Protein content was determined by the Markwell-modified Lowry protein assay^44. Human LDL and HDL were isolated from whole blood of healthy volunteers by established methods^45. Human myeloperoxidase (MPO) (donor: hydrogen peroxide, oxidoreductase, EC 1.11.1.7), NO2-LDL and AcLDL were prepared as described in Podrez et al^14.
In a separate series of studies, we therefore examined the impact of MPO-catalyzed lipoprotein carbamylation on these processes.

As for `CCC(C)(C)C(=O)O[C@H]1C[C@@H](C)C=C2C=C[C@H](C)[C@H](CC[C@@H]3C[C@@H](O)CC(=O)O3)[C@H]21` [Simvastatin, simvastatin], the “Median % Change (SD) of homocitrulline” value in assay [1] (simvastatin 20 mg, Day 42 vs predose Day 1, archived serum and/or plasma) is −100.0 (102.67) %; in assay [1] (simvastatin 40 mg, Day 42 vs predose Day 1, archived serum and/or plasma), −100.0 (67.77) %; in assay [1] (simvastatin 80 mg, Day 42 vs predose Day 1, archived serum and/or plasma), −63.44 (89.63) %; in assay [1] (simvastatin combined (20, 40, 80 mg), Day 42 vs predose Day 1), −100.0 (84.03) %.

Regarding fucoidin, in assay [2], the “inhibition of specific binding of carbamylated LDL” value is “over 80%”. The “effect on proliferation induced by carbamylated LDL” value in assay [3] is listed as “markedly suppressed”.

The values are drawn from patent publication US9086425B2, “Carbamylated proteins and risk of cardiovascular disease” (The Cleveland Clinic Foundation, priority 2007, dated 2015).
